Data published in ChEMBL document CHEMBL3351766, “Asymmetric binding to NS5A by daclatasvir (BMS-790052) and analogs suggests two novel modes of HCV inhibition” (J Med Chem, 2014).
One block for each compound: values may come before it.

Experiments:
Hepatitis C virus [1] = experiment: Antiviral activity against wild type HCV genotype 1b assessed as replication level; format: functional, Hepacivirus hominis; conditions: for EC50: Hepatitis C virus, genotype 1b
Hepatitis C virus [2] = experiment: Antiviral activity against HCV genotype 1b expressing NS5A Y93H mutant assessed as replication level; format: functional, Hepacivirus hominis; conditions: for EC50: Hepatitis C virus, genotype 1b
Hepatitis C virus [3] = experiment: Antiviral activity against HCV genotype 1b expressing NS5A L31F mutant assessed as replication level
Hepatitis C virus [4] = experiment: Antiviral activity against HCV genotype 1b expressing NS5A L31V/Y93H mutant assessed as replication level; format: functional, Hepacivirus hominis
Hepatitis C virus [5] = experiment: Antiviral activity against HCV genotype 1b expressing NS5A L31M/Y93H mutant assessed as replication level; format: functional, Hepacivirus hominis
Hepatitis C virus [6] = experiment: Antiviral activity against HCV genotype 1b expressing NS5A L31V mutant assessed as replication level; format: functional, Hepacivirus hominis
Hepatitis C virus [7] = experiment: Antiviral activity against HCV genotype 1b expressing NS5A L31M mutant assessed as replication level; format: functional, Hepacivirus hominis

SMILES: COC(=O)N[C@H](C(=O)N1CCC[C@H]1c1ncc(-c2ccc(Oc3ccc(-c4cnc([C@@H]5CCCN5C(=O)[C@@H](NC(=O)OC)C(C)C)[nH]4)cc3)cc2)[nH]1)C(C)C
EC50 (Hepatitis C virus [1]): 30 nM

SMILES: COC(=O)N[C@H](C(=O)N1C[C@@H](n2cc(C(=O)OC)nn2)C[C@H]1c1ncc(-c2ccc(-c3ccc(-c4cnc([C@@H]5C[C@H](n6cc(C(=O)OC)nn6)CN5C(=O)[C@@H](NC(=O)OC)C(C)C)[nH]4)cc3)cc2)[nH]1)C(C)C
EC50 (Hepatitis C virus [1]): > 10 nM

SMILES: COC(=O)N[C@H](C(=O)N1CCC[C@H]1c1ncc(-c2ccccc2)[nH]1)C(C)C
EC50 (Hepatitis C virus [1]): > 1000 nM

SMILES: COC(=O)N[C@H](C(=O)N1CCC[C@H]1c1ncc(-c2ccc(N=[N+]=[N-])cc2)[nH]1)C(C)C
EC50 (Hepatitis C virus [2]): 8 nM

SMILES: COC(=O)N[C@H](C(=O)N1CCC[C@H]1c1nc(Br)c(-c2ccc(N=[N+]=[N-])cc2)[nH]1)C(C)C
EC50 (Hepatitis C virus [3]): 0.7 nM

SMILES: COC(=O)N[C@H](C(=O)N1CCC[C@H]1c1ncc(-c2ccc(-c3ccc(-c4cnc([C@@H]5CCCN5C(=O)[C@@H](NC(=O)OC)C(C)C)[nH]4)cc3)cc2)[nH]1)C(C)C [DACLATASVIR]
Activity (Hepatitis C virus [4]): 50% | EC50 (Hepatitis C virus [4]; Hepatitis C virus, genotype 1b): 38 nM | Activity (Hepatitis C virus [1]): 100% | EC50 (Hepatitis C virus [1]): 0.0026 nM | Activity (Hepatitis C virus [5]): 70% | EC50 (Hepatitis C virus [5]; Hepatitis C virus, genotype 1b): 18.3 nM | Activity (Hepatitis C virus [6]): 158% | EC50 (Hepatitis C virus [6]; Hepatitis C virus, genotype 1b): 0.0717 nM | Activity (Hepatitis C virus [2]): 27% | EC50 (Hepatitis C virus [2]): 0.0623 nM | Activity (Hepatitis C virus [7]): 99% | EC50 (Hepatitis C virus [7]; Hepatitis C virus, genotype 1b): 0.0084 nM

Next, values leading:

EC50 (Hepatitis C virus [1]): 0.023 nM
SMILES: COC(=O)N[C@H](C(=O)N1C[C@@H](N=[N+]=[N-])C[C@H]1c1ncc(-c2ccc(-c3ccc(-c4cnc([C@@H]5C[C@H](N=[N+]=[N-])CN5C(=O)[C@@H](NC(=O)OC)C(C)C)[nH]4)cc3)cc2)[nH]1)C(C)C

EC50 (Hepatitis C virus [1]): 0.0184 nM
SMILES: COC(=O)N[C@H](C(=O)N1C[C@H](N=[N+]=[N-])C[C@H]1c1ncc(-c2ccc(-c3ccc(-c4cnc([C@@H]5C[C@@H](N=[N+]=[N-])CN5C(=O)[C@@H](NC(=O)OC)C(C)C)[nH]4)cc3)cc2)[nH]1)C(C)C

EC50 (Hepatitis C virus [1]): 0.0118 nM
SMILES: COC(=O)N[C@H](C(=O)N1C[C@H](n2cc(C(=O)OC)nn2)C[C@H]1c1ncc(-c2ccc(-c3ccc(-c4cnc([C@@H]5C[C@@H](n6cc(C(=O)OC)nn6)CN5C(=O)[C@@H](NC(=O)OC)C(C)C)[nH]4)cc3)cc2)[nH]1)C(C)C

EC50 (Hepatitis C virus [1]): 0.05 nM
SMILES: COC(=O)N[C@H](C(=O)N1CCC[C@H]1c1nc(Br)c(-c2ccc(Oc3ccc(-c4[nH]c([C@@H]5CCCN5C(=O)[C@@H](NC(=O)OC)C(C)C)nc4Br)cc3)cc2)[nH]1)C(C)C
